Test results published in patent US7795305B2, “CDDO-compounds and combination therapies thereof” (Board of Regents, The University of Texas System, priority 2000, dated 2010).

Tests used:
U937 and HL-60 cells = assay: Phi-Phi-Lux cleavage with caspase-3 inhibitor Z-DEVD-fmk pre-treatment; assay type: cell-based, human
Method: Detection of active caspases. The cell-permeable fluorogenic substrate Phi-Phi-Lux-G1D2 was administered to monitor caspase activity according to the manufacturer's recommendations (OncoImmunin, Inc, Kensington, Md.). Briefly, 10^6 cells were resuspended in 5 μL of substrate solution and incubated for 1 hour at 37° C. in the dark. After incubation, cells were washed, and the fluorescence emission was determined using the FL-1 channel of a Becton Dickinson FACScan flow cytometer.
CDDO-Me. […] Effects of CDDO-Me on the cleavage of caspase-3 were analyzed utilizing the fluorogenic substrate of caspase-3 Phi-Phi-Lux.

CML-blast crisis samples = assay: Apoptosis and differentiation in CML-blast crisis samples in vitro; assay type: cell-based, human
Source text: Subjects. Samples of bone marrow or peripheral blood were obtained for in vitro studies from patients with newly diagnosed or recurrent AML with high (>70%) blast count and from patients with myeloid transformation of chronic myeloid leukemia (CML). Informed consent was obtained following institutional guidelines. Mononuclear cells were separated by Ficoll-Hypaque (Sigma Chemical Co) density-gradient centrifugation.
CDDO-Me. In primary AML, CDDO-Me induced apoptotic cell death in a dose-dependent fashion as determined by DNA flow cytometry (subG1): at 1 μM CDDO-Me, apoptosis was induced in 5 of 6 AML samples in vitro, and 5 μM induced apoptosis in 6 of 6 samples. More than 90% apoptotic cells were detected in 4/6 samples following exposure to 5 μM of CDDO-Me (FIG. 21A). At lower concentrations, CDDO-Me induced a dose-dependent increase in the percentage of the apoptotic cells in 4/4 samples tested (FIG. 21B). The paired mean difference between the CDDO-Me 0.1 μM and DMSO control is 26.9%±10.8% (CDDO-Me-DMSO, mean±SEM); and the paired mean difference between the CDDO-Me 0.5 μM and DMSO is 43.2%±5.2%. […] Effects of CDDO-Me were also tested on clonogenic AML cells. […] In contrast, 79±5.6% and 63.4±1.1% CFU-GM generated from normal CD34* cells were detected after 0.1 and 0.5 μM of CDDO-Me treatment (n=3).

U937 S70E Bcl-2 cells = assay: Viability of Bcl-2 mutant transfectants; assay type: cell-based, human; details: 0.1 μM
Source text: (§1) Cell lines. HL-60, KG-1, U937, and Jurkat cell lines were obtained from the American Type Culture Collection (Rockville, Md.). NB4 cells were kindly provided by Dr. M. Lanotte. HL-60-doxorubicin-resistant cells (HL-60-DOX) were also used. U937/Bcl-2 and its appropriate vector controls (U937/pCEP) were provided by Dr. S. Grant. U937 cells were transfected with WT, S70A, or S70E cDNA containing cytomegalovirus plasmids by electroporation (200 V, 975 μF capacitance) and selected and maintained in the medium plus 500 μg/mL G418 (Gibco BRL, Gaithersburg, Md.)
(§2) The effect of CDDO-Me on Bcl-2 phosphorylation was further investigated by performing metabolic labeling studies with ^32P-orthophosphoric acid. […] To further investigate mechanisms of inhibition of Bcl-2 phosphorylation that could may a role in CDDO-Me-induced cell death, the inventors selected U937 cells that were stably transfected with a serine 70→alanine, Bcl-2 mutant (S70A).

U937/S70A Bcl-2 cells = assay: Viability of Bcl-2 mutant transfectants; assay type: cell-based, human; details: 0.1 μM
Source text: as §1, §2

[1] = tested on: RXR-expressing HL-60 cells; assay: Acetylation of nuclear histones, Western blot; assay type: cell-based, human; details: alone or with RXR-specific ligand LG-100268
Source text: PPARγ must form a heterodimer with RXR to bind DNA and activate transcription (Nolte et al., 1998). RXR-specific ligands markedly induce the binding of the co-activator SRC-1 to PPARγ-RXR heterodimers ([…] et al., 1998), and assembly of this complex results in a large increase in transcriptional activity. […] One method to increase the effects of PPARγ ligands contemplated herein is by combination with ligands specific for RXR. […] TSA, the histone deacetylase inhibitor, served as a positive control. Combination of the PPARγ ligand CDDO with TSA synergistically induce differentiation in HL-60 cells and the present inventors contemplate that this is a result of transcriptional activation of target genes via histone acetylation.

NB4 cells = assay: Cell surface Fas/CD95 expression by flow cytometry; assay type: cell-based, human; details: 0.5 μM, 48 hours (24.8 in DMSO-treated cells)
Method: (§3) Immunophenotyping. The PE-conjugated anti-CD11b, FITC-conjugated anti-CD14 monoclonal antibody (mAb) (Becton Dickinson) and PE-conjugated anti-CD95 mAb (PharMingen) were used at a 1/10 dilution. The percentage of positive cells was calculated by subtracting the percentage of cells with a fluorescence intensity greater than the set marker using the isotype control (background) from the percentage of cells with a fluorescence intensity greater than the same marker using the specific antibody.
(§4) Mechanisms of CDDO-induced apoptosis in leukemia cell lines and in primary AML samples were also determined. The involvement of the death receptor/Fas pathway was studied in NB4 cells. Treatment with 0.5 μM CDDO induced cell surface Fas/CD95 expression at 48 hours (MFI 34.8 vs 24.8 in DMSO-treated cells and 26 in untreated control). At this concentration, 22.3% of cells were annexin V positive compared with 11.4% in DMSO-controls. At 1 μM, 56.3% of cells were apoptotic. Similarly, 1 μM CDDO induced Fas expression in 7/12 AML CD34+ cells (MFI, 22.3±3.5 in DMSO-controls, 40±4.3 in CDDO-treated CD34+ cells, p<0.01).

AML CD34+ cells = assay: Fas expression in primary AML CD34+ cells; assay type: cell-based, human
Method: as §3, §4

[2] = tested on: Bcl-2 in CD34+ cells of primary AML; assay: Bcl-2 expression level in CD34+ cells of primary AML samples; assay type: cell-based, human
PPARα receptor = PPARα receptor (Homo sapiens, UniProt Q07869); assay: Transactivation of PPARα; assay type: cell-based
GAL4-PPARγ = assay: Gal4-PPARγ chimeric protein luciferase transactivation; assay type: cell-based
Method: To determine if bound CDDO transactivates PPARγ, a Gal4-PPARγ chimeric protein was used to drive the expression of luciferase linked to the DNA binding sequence of GAL4 (FIG. 11B) (Wang et al., 2000). […] All known pharmacological PPARγ ligands had anti-proliferative and differentiating effects only when used at higher (3 or 5 μM)concentrations.

Sequence of PPARα receptor (Q07869 whole entry, the tested form may be a part): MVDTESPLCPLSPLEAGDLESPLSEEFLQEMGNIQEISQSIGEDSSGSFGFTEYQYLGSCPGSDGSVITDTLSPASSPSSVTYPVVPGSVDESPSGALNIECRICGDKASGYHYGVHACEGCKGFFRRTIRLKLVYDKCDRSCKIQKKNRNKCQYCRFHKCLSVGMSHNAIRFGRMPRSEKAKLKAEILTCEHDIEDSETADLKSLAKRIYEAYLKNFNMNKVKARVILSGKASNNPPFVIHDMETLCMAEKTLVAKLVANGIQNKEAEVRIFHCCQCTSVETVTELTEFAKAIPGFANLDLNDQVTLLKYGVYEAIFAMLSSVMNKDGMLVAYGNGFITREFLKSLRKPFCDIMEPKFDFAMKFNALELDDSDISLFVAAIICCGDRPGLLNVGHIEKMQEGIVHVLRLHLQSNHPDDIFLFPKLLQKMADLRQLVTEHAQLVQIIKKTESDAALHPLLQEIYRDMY

Question: For `COC(=O)[C@]12CCC(C)(C)C[C@H]1[C@H]1C(=O)C=C3[C@@]4(C)C=C(C#N)C(=O)C(C)(C)[C@@H]4CC[C@@]3(C)[C@]1(C)CC2` [CDDO-Me], which “cleavage of Phi-Phi-Lux” value (U937 and HL-60 cells; CDDO-Me without inhibitor) is on record?
Answer: 15.1%

Question: And the “cleavage of Phi-Phi-Lux” value (U937 and HL-60 cells; pre-treatment with 25 μM Z-DEVD-fmk for 1 hour)?
Answer: 2.7%

Question: And the “CML-blast crisis samples in which apoptosis was induced” value (CML-blast crisis samples; 1 μM)?
Answer: 3 of 4

Question: And the “CML-blast crisis samples in which apoptosis was induced” value (CML-blast crisis samples; 5 μM)?
Answer: 4 of 4

Question: And the viable cells (U937 S70E Bcl-2 cells)?
Answer: 75%

Question: And the decrease in viability (U937/S70A Bcl-2 cells)?
Answer: 60%

Question: How did the “acetylation of histones H3 and H4” value [1] turn out when `CC1(C)CCC2(C(=O)O)CCC3(C)C(C(=O)C=C4C5(C)C=C(C#N)C(=O)C(C)(C)C5CCC43C)C2C1` (stereo not shown) [CDDO, 2-cyano-3,12-dioxoolen-1,9-dien-28-oic acid] was run?
Answer: induction of acetylation of histones H3 and H4

Question: And the “cell surface Fas/CD95 expression, MFI” value (NB4 cells)?
Answer: 34.8

Question: And the “AML samples with induced Fas expression in CD34+ cells” value (AML CD34+ cells; 1 μM)?
Answer: 7/12

Question: And the “Fas expression, MFI” value (AML CD34+ cells; 1 μM (22.3±3.5 in DMSO-controls))?
Answer: 40±4.3

Question: What about the “primary AML samples with significantly decreased Bcl-2 expression level in CD34+ cells” value [2] of the same compound?
Answer: 9 of 18

Question: And the “transactivation of PPARα receptor” value (PPARα receptor)?
Answer: did not transactivate

Question: And the “transactivation of GAL4-PPARγ” value (GAL4-PPARγ)?
Answer: transactivates GAL4-PPARγ in a dose-dependent manner
